# Data from patent publication US10597388B2, “Pyridazinone herbicides” (FMC CORPORATION, priority 2014, dated 2020).
# Legend:
# Assay type in all cases: in vivo
# [1] = tested on: Italian ryegrass (Lolium multiflorum); test: Test E greenhouse herbicide test, pre- and postemergence
# Excerpt: (§1) Seeds of plant species selected from corn (Zea mays), soybean (Glycine max), velvetleaf (Abutilon theophrasti), lambsquarters (Chenopodium album), wild poinsettia (Euphorbia heterophylla), pigweed, palmer (palmer pigweed, Amaranthus palmeri), waterhemp (common waterhemp, Amaranthus rudis), surinam grass (Brachiaria decumbens), crabgrass, large (large crabgrass, Digitaria sanguinalis), crabgrass, Brazilian (Brazilian crabgrass, Digitaria horizontalis), panicum, fall (fall panicum, Panicum dichotomiflorum), foxtail, giant (giant foxtail, Setaria faberii), foxtail, green (green foxtail, Setaria viridis), goosegrass (Eleusine indica), johnsongrass (Sorghum halepense), ragweed (common ragweed, Ambrosia elatior), barnyardgrass (Echinochloa crus-galli), sandbur (southem sandbur, Cenchrus echinatus), arrowleaf sida (Sida rhombifolia), Italian ryegrass (Lolium multiflorum), dayflower (Virginia (VA) dayflower, Commelina virginica), field bindweed (Convolvulus arvensis), momingglory (Ipomoea coccinea), nightshade (eastern black nightshade, Solanum ptycanthum), kochia (Kochia scoparia), nutsedge, yellow (yellow nutsedge, Cyperus esculentus), horseweed (Conyza canadensis), and beggarticks (hairy beggarticks, Bidens pilosa), were planted into a silt loam soil and treated preemergence with test chemicals formulated in a non-phytotoxic solvent mixture which included a surfactant.
# (§2) At the same time, plants from these crop and weed species and also waterhemp_RES1, (ALS & Triazine resistant common waterhemp, Amaranthus rudis), and waterhemp_RES2, (ALS & HPPD resistant common waterhemp, Amaranthus rudis) were planted in pots containing Redi-Earth® planting medium (Scotts Company, 14111 Scottslawn Road, Marysville, Ohio 43041) comprising spaghnum peat moss, vermiculite, wetting agent and starter nutrients were treated with postemergence applications of test chemicals formulated in the same manner. Plants ranged in height from 2 to 18 cm for postemergence treatments (1- to 4-leaf stage). Treated plants and controls were maintained in a greenhouse for 14 to 21 d, after which time all species were compared to controls and visually evaluated. Plant response ratings, summarized in Table E, are based on a scale of 0 to 100 where 0 is no effect and 100 is complete control. A dash (-) response means no test result.
# [2] = tested on: arrowleaf sida (Sida rhombifolia); test: as above
# Excerpt: as §1, §2
# [3] = tested on: crabgrass, large (large crabgrass, Digitaria sanguinalis); test: as above; conditions: Preemergence
# Excerpt: as §1, §2
# [4] = tested on: dayflower (Virginia (VA) dayflower, Commelina virginica); test: as above
# Excerpt: as §1, §2
# [5] = tested on: foxtail, giant (giant foxtail, Setaria faberii); test: as above; conditions: Preemergence
# Excerpt: as §1, §2
# [6] = tested on: foxtail, green (green foxtail, Setaria viridis); test: as above; conditions: Preemergence
# Excerpt: as §1, §2
# [7] = tested on: johnsongrass (Sorghum halepense); test: as above; conditions: Preemergence
# Excerpt: as §1, §2
# [8] = tested on: kochia (Kochia scoparia); test: as above; conditions: Preemergence
# Excerpt: as §1, §2
# [9] = tested on: momingglory (Ipomoea coccinea); test: as above; conditions: Preemergence
# Excerpt: as §1, §2
# [10] = tested on: nightshade (eastern black nightshade, Solanum ptycanthum); test: as above; conditions: Preemergence
# Excerpt: as §1, §2
# [11] = tested on: pigweed, palmer (palmer pigweed, Amaranthus palmeri); test: as above
# Excerpt: as §1, §2
# [12] = tested on: soybean (Glycine max); test: as above
# Excerpt: as §1, §2
# [13] = tested on: velvetleaf (Abutilon theophrasti); test: as above; conditions: Preemergence
# Excerpt: as §1, §2
# [14] = tested on: waterhemp_RES1 (ALS & Triazine resistant common waterhemp, Amaranthus rudis); test: Test E greenhouse herbicide test, postemergence
# Summary of the method: (§3)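 Postemergence spray on potted plants, 1–4 leaves, 2–18 cm; greenhouse 14–21 d; visual rating vs controls, 0 (no effect) to 100 (complete control).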
# [15] = tested on: waterhemp_RES2 (ALS & HPPD resistant common waterhemp, Amaranthus rudis); test: Test E greenhouse herbicide test, postemergence
# Summary of the method: as §3
# [16] = 62 g ai/ha, Postemergence, scale 0 to 100 (0 no effect, 100 complete control)
# [17] = 62 g ai/ha, Preemergence, scale 0 to 100 (0 no effect, 100 complete control)
# [18] = 125 g ai/ha, Postemergence, scale 0 to 100 (0 no effect, 100 complete control)
# [19] = 125 g ai/ha, Preemergence, scale 0 to 100 (0 no effect, 100 complete control)
# [20] = 250 g ai/ha, Postemergence, scale 0 to 100 (0 no effect, 100 complete control)
# [21] = Postemergence, 16 g ai/ha, visual, scale 0 no effect to 100 complete control
# [22] = Postemergence, 31 g ai/ha, visual, scale 0 no effect to 100 complete control
# [23] = Preemergence, 16 g ai/ha, scale 0 to 100, 0 no effect, 100 complete control
# [24] = Preemergence, 31 g ai/ha, scale 0 to 100, 0 no effect, 100 complete control
# [25] = Preemergence, 250 g ai/ha, visual, scale 0 no effect to 100 complete control
# [26] = Preemergence, 125 g ai/ha, visual, scale 0 no effect to 100 complete control
# [27] = 62 g ai/ha, scale 0 to 100 (0 no effect, 100 complete control)
# [28] = 16 g ai/ha, scale 0 to 100, 0 no effect, 100 complete control
# [29] = 31 g ai/ha, scale 0 to 100, 0 no effect, 100 complete control
# [30] = 125 g ai/ha, visual, scale 0 no effect to 100 complete control
# [31] = 250 g ai/ha, visual, scale 0 no effect to 100 complete control
# [32] = 125 g ai/ha, scale 0 to 100 (0 no effect, 100 complete control)
# [33] = 16 g ai/ha, visual, scale 0 no effect to 100 complete control
# [34] = 31 g ai/ha, visual, scale 0 no effect to 100 complete control
# [35] = 250 g ai/ha, scale 0 to 100 (0 no effect, 100 complete control)
smiles,measurement,setting,value
"Cc1cc(C)c2sc(C)c(-c3c(O)c(C)nn(C)c3=O)c2c1 [Compound 2, 5-hydroxy-2,6-dimethyl-4-(2,5,7-trimethylbenzo[b]thien-3-yl)-3(2H)-pyridazinone]","Plant response rating, Ryegrass, Italian",[1]; [16],50
same,"Plant response rating, Ryegrass, Italian",[1]; [17],98
same,"Plant response rating, Ryegrass, Italian",[1]; [18],65
same,"Plant response rating, Ryegrass, Italian",[1]; [19],100
same,"Plant response rating, Ryegrass, Italian",[1]; [20],75
same,"Plant response rating, Ryegrass, Italian",[1]; [21],20
same,"Plant response rating, Ryegrass, Italian",[1]; [22],30
same,"Plant response rating, Ryegrass, Italian",[1]; [23],50
same,"Plant response rating, Ryegrass, Italian",[1]; [24],95
same,"Plant response rating, Ryegrass, Italian",[1]; [25],100
same,"Plant response rating, Arrowleaf Sida",[2]; [16],30
same,"Plant response rating, Arrowleaf Sida",[2]; [17],0
same,"Plant response rating, Arrowleaf Sida",[2]; [18],35
same,"Plant response rating, Arrowleaf Sida",[2]; [20],40
same,"Plant response rating, Arrowleaf Sida",[2]; [21],0
same,"Plant response rating, Arrowleaf Sida",[2]; [22],25
same,"Plant response rating, Arrowleaf Sida",[2]; [23],0
same,"Plant response rating, Arrowleaf Sida",[2]; [24],0
same,"Plant response rating, Arrowleaf Sida",[2]; [26],0
same,"Plant response rating, Arrowleaf Sida",[2]; [25],5
same,"Plant response rating, Crabgrass, Large",[3]; [27],0
same,"Plant response rating, Crabgrass, Large",[3]; [28],0
same,"Plant response rating, Crabgrass, Large",[3]; [29],0
same,"Plant response rating, Crabgrass, Large",[3]; [30],30
same,"Plant response rating, Crabgrass, Large",[3]; [31],60
same,"Plant response rating, Dayflower, VA",[4]; [16],15
same,"Plant response rating, Dayflower, VA",[4]; [17],20
same,"Plant response rating, Dayflower, VA",[4]; [18],65
same,"Plant response rating, Dayflower, VA",[4]; [20],65
same,"Plant response rating, Dayflower, VA",[4]; [21],0
same,"Plant response rating, Dayflower, VA",[4]; [22],20
same,"Plant response rating, Dayflower, VA",[4]; [23],0
same,"Plant response rating, Dayflower, VA",[4]; [24],15
same,"Plant response rating, Dayflower, VA",[4]; [26],25
same,"Plant response rating, Dayflower, VA",[4]; [25],90
same,"Plant response rating, Foxtail, Giant",[5]; [27],95
same,"Plant response rating, Foxtail, Giant",[5]; [28],40
same,"Plant response rating, Foxtail, Giant",[5]; [29],75
same,"Plant response rating, Foxtail, Giant",[5]; [30],98
same,"Plant response rating, Foxtail, Giant",[5]; [31],98
same,"Plant response rating, Foxtail, Green",[6]; [27],95
same,"Plant response rating, Foxtail, Green",[6]; [28],0
same,"Plant response rating, Foxtail, Green",[6]; [29],35
same,"Plant response rating, Foxtail, Green",[6]; [30],95
same,"Plant response rating, Foxtail, Green",[6]; [31],98
same,"Plant response rating, Johnsongrass",[7]; [27],20
same,"Plant response rating, Johnsongrass",[7]; [28],0
same,"Plant response rating, Johnsongrass",[7]; [29],35
same,"Plant response rating, Johnsongrass",[7]; [30],35
same,"Plant response rating, Johnsongrass",[7]; [31],50
same,"Plant response rating, Kochia",[8]; [27],0
same,"Plant response rating, Kochia",[8]; [28],0
same,"Plant response rating, Kochia",[8]; [29],0
same,"Plant response rating, Kochia",[8]; [30],0
same,"Plant response rating, Kochia",[8]; [31],40
same,"Plant response rating, Morningglory",[9]; [27],90
same,"Plant response rating, Morningglory",[9]; [32],100
same,"Plant response rating, Morningglory",[9]; [28],0
same,"Plant response rating, Morningglory",[9]; [29],75
same,"Plant response rating, Morningglory",[9]; [31],100
same,"Plant response rating, Nightshade",[10]; [27],98
same,"Plant response rating, Nightshade",[10]; [32],98
same,"Plant response rating, Nightshade",[10]; [28],35
same,"Plant response rating, Nightshade",[10]; [29],75
same,"Plant response rating, Nightshade",[10]; [31],100
same,"Plant response rating, Pigweed, Palmer",[11]; [16],5
same,"Plant response rating, Pigweed, Palmer",[11]; [17],50
same,"Plant response rating, Pigweed, Palmer",[11]; [18],5
same,"Plant response rating, Pigweed, Palmer",[11]; [19],90
same,"Plant response rating, Pigweed, Palmer",[11]; [20],35
same,"Plant response rating, Pigweed, Palmer",[11]; [21],0
same,"Plant response rating, Pigweed, Palmer",[11]; [22],50
same,"Plant response rating, Pigweed, Palmer",[11]; [23],0
same,"Plant response rating, Pigweed, Palmer",[11]; [24],20
same,"Plant response rating, Pigweed, Palmer",[11]; [25],100
same,"Plant response rating, Soybean",[12]; [16],0
same,"Plant response rating, Soybean",[12]; [17],0
same,"Plant response rating, Soybean",[12]; [18],0
same,"Plant response rating, Soybean",[12]; [19],15
same,"Plant response rating, Soybean",[12]; [20],0
same,"Plant response rating, Soybean",[12]; [21],0
same,"Plant response rating, Soybean",[12]; [22],0
same,"Plant response rating, Soybean",[12]; [23],0
same,"Plant response rating, Soybean",[12]; [24],0
same,"Plant response rating, Soybean",[12]; [25],40
same,"Plant response rating, Velvetleaf",[13]; [27],60
same,"Plant response rating, Velvetleaf",[13]; [32],80
same,"Plant response rating, Velvetleaf",[13]; [28],0
same,"Plant response rating, Velvetleaf",[13]; [29],30
same,"Plant response rating, Velvetleaf",[13]; [31],90
same,"Plant response rating, Waterhemp_RES1",[14]; [33],65
same,"Plant response rating, Waterhemp_RES1",[14]; [34],70
same,"Plant response rating, Waterhemp_RES1",[14]; [27],70
same,"Plant response rating, Waterhemp_RES1",[14]; [32],70
same,"Plant response rating, Waterhemp_RES1",[14]; [35],100
same,"Plant response rating, Waterhemp_RES2",[15]; [33],0
same,"Plant response rating, Waterhemp_RES2",[15]; [34],0
same,"Plant response rating, Waterhemp_RES2",[15]; [27],5
same,"Plant response rating, Waterhemp_RES2",[15]; [32],5
same,"Plant response rating, Waterhemp_RES2",[15]; [35],60
